Measurements taken from EP2688405B1 (priority 2011, dated 2012).
≈ marks a conversion by molar mass, not a printed value. Like-named read-outs stand apart in the source and are kept apart here.

Key:
Assay type in all cases: cell-based
[1] = system: Phytophthora infestans; conditions: Phytin, single compound
[2] = system: Botrytis cinerea; test: Microtest with mixtures of active compounds, grey mold (Botrci); conditions: single compound
[3] = system: Pyricularia oryzae; conditions: Pyrior, single compound
[4] = system: Septoria tritici; test: Microtest with mixtures of active compounds, leaf blotch on wheat (Septtr)
[5] = system: Staphylococcus aureus ATCC 29213; test: Minimum Inhibitory Concentration (MIC) test, broth microdilution; conditions: ATCC 29213 / DSM 2569, IsoSensitest broth, 24 hours at 37°C, no growth (OD smaller than 0.1)
[6] = system: Pseudomonas aeruginosa ATCC 27853; test: as above; conditions: ATCC 27853 / DSM 1117, IsoSensitest broth, 24 hours at 37°C, no growth (OD smaller than 0.1)

Fc1ccc([C@@]2(Cn3ncnc3S)O[C@@H]2c2ccccc2Cl)c(F)c1 (relative stereo) [Azole*, 2-[rel-(2S;3R)-3-(2-chlorophenyl)-2-(2,4-difluorophenyl)-oxiranylmethyl]-2H-[1,2,4]triazole-3-thiol]
Observed efficacy ([1]; 4 ppm): 20% | Observed efficacy ([2]; 1 ppm): 15% | Observed efficacy ([3]; 16 ppm): 65% | Observed efficacy ([4]; 0.25 ppm): 4% | Observed efficacy ([4]; 4 ppm): 40%

Cn1cc(C(=O)Nc2ccccc2-c2cc(F)c(F)c(F)c2)c(C(F)F)n1 [Fluxapyroxad]
Observed efficacy ([1]; 0.063 ppm): 12% | Observed efficacy ([2]; 0.016 ppm): 13%

Fc1ccc([C@]2(Cn3cncn3)O[C@H]2c2ccccc2Cl)cc1 (racemic) [Epoxiconazole]
Observed efficacy ([1]; 0.25 ppm): 11% | Observed efficacy ([2]; 0.063 ppm): 34% | Observed efficacy ([3]; 0.25 ppm): 5%

CCn1cc(C(=O)O)c(=O)c2ccc(C)nc21 [Control 3, Nalidixic acid]
MIC [5]: 64 mg/L (≈ 276 µM) | MIC [6]: 1020 mg/L (≈ 4410 µM)

COC(=O)N(OC)c1ccccc1COc1ccn(-c2ccc(Cl)cc2)n1 [Pyraclostrobin]
Observed efficacy ([1]; 0.063 ppm): 24% | Observed efficacy ([2]; 0.016 ppm): 0% | Observed efficacy ([4]; Septtr, single compound, 0.001 ppm): 38%

CC1=C(C(=O)O)N2C(=O)[C@@H](NC(=O)[C@H](N)c3ccccc3)[C@H]2SC1 [Control 1, Cephalexine]
MIC [5]: 4 mg/L (≈ 11.5 µM) | MIC [6]: > 4100 mg/L

CC(=O)[O-].CCCCn1cc[n+](CCCC)c1 [C2, 1,3-Dibutylimidazolium acetate]
MIC [5]: 2050 mg/L | MIC [6]: 4100 mg/L
